Measured values taken from patent publication US11851459B2, “Methods and uses of modulators of anaphase promoting complex (APC) activity for treating cancer” (University of Saskatchewan, priority 2018, dated 2023).

System: wild type (WT) cells
Assay: Growth of WT yeast expressing peptides, spot dilution
Format: cell-based
Details: peptides expressed in WT yeast
Description: A. Yeast 2-hybrid (Y2H) cells expressing the APC subunit bait and the galactose inducible Apc10 peptide prey grown on glucose or galactose. Cells co-expressing the Apc5 or Apc10-bait and Apc10 aptamer-prey vectors were spotted onto the appropriate media, in the presence or absence of galactose (the aptamers are Gal inducible), to confirm Y2H interactions. Growth on trp^− his^− media ensures both plasmids are maintained. A Y2H interaction will drive expression of the ADE2 gene, allowing growth on ade^− media. B. Aptamers that bind Apc10 can suppress APC mutant phenotypes. Spot dilutions of apc10Δ cells expressing an empty vector control or the one of 6 Apc10 aptamers tested. Log phase cells were 10-fold serially diluted and spotted onto plates containing either 2% glucose or 2% galactose. The plates were then incubated at 30° C. (permissive temperature) and 34° C. (restrictive stress). C. Peptides identified as binding to the yeast Apc10 APC subunit using the Y2H screen increase growth of wildtype (WT) cells. A series of APC binding peptides were transformed into WT yeast cells, spot diluted, and grown at 30° C. on media supplemented with the normal carbon source (2% glucose). […]
The six peptide expressing vectors were transformed into apc10Δ cells and assessed for temperature sensitive growth. […]

NGSSHNDLRVRRLTLISRLC [C43-4]
growth / viability of WT cells: increases the viability of WT cells
